This note sets out measurements from patent US8012975B2, “Antitumoral analogs of ET-743” (Pharma Mar, S.A., priority 2000, dated 2011).

Broadly, the IC50 is the concentration needed to halve the response being measured.

Molecules are shown by their SMILES. Bounds are passed on as bounds.

Assay [1] has as its system P-388. The assay is described as follows: Cytotoxic activity IC50, P-388. Conditions: Mus musculus, P388, read-out: CYTOTOXIC ACTIVITIY IC50 (μM) P-388.
Assay [2] deals with A-549. The assay is described as follows: Cytotoxic activity IC50, A-549. Conditions: Homo sapiens, A549, read-out: CYTOTOXIC ACTIVITIY IC50 (μM) A-549, A-549.
Assay [3] concerns HT-29. Briefly: Cytotoxic activity IC50, HT-29. The conditions noted are these: Homo sapiens, HT-29, read-out: CYTOTOXIC ACTIVITIY IC50 (μM) HT-29, HT-29.
The subject of assay [4] is MEL-28. Briefly: Cytotoxic activity IC50, MEL-28. The conditions noted are these: Homo sapiens, SK-MEL-28, read-out: CYTOTOXIC ACTIVITIY IC50 (μM) MEL-28, MEL-28.
Assay [5] deals with DU-145. The assay is described as follows: Cytotoxic activity IC50, DU-145. Conditions: Homo sapiens, DU-145, read-out: CYTOTOXIC ACTIVITIY IC50 (μM) DU-145, DU-145.

For the molecule `COc1c(C)cc2c(c1O)[C@@H]1C3[C@@H]4SCC(=O)C(=O)OC[C@@H](c5c6c(c(C)c(OC(C)=O)c54)OCO6)N3[C@@H](C#N)[C@H](C2)N1C` (stereo partly drawn), the IC50 in assay [1], in assay [2], in assay [3] and in assay [4] was 0.1 µM in each case.
Take `COC1=C(C)C(=O)C2=C(C1=O)[C@H](CNC(C)=O)N1C(C2)[C@H]2c3c(cc(C)c(OC)c3O)C[C@@H]([C@@H]1C#N)N2C` (stereo partly drawn): the IC50 in assay [1], in assay [2], in assay [3] and in assay [4] was 0.005 µM in each case.
In the case of `COc1c(C)cc2c(c1O)[C@@H]1C3Cc4c(OC(C)=O)c(C)c5c(c4[C@H](CNC(=O)CC(C)C)N3[C@@H](O)[C@H](C2)N1C)OCO5` (stereo partly drawn), the IC50 in assay [1] worked out at 0.0008 µM; in assay [2], 0.001 µM; in assay [3], 0.0008 µM; in assay [4] it was 0.0008 µM; in assay [5], 0.001 µM.
With `COc1c(C)cc2c(c1O)[C@@H]1C3Cc4c(OC(C)=O)c(C)c5c(c4[C@H](CNC(=O)[C@@H](C)NC(=O)CC(C)C)N3[C@@H](O)[C@H](C2)N1C)OCO5` (stereo partly drawn), the IC50 in assay [1], in assay [2], in assay [3], in assay [4] and in assay [5] was 0.001 µM throughout.
Take `COCOc1c(OC)c(C)cc2c1[C@@H]1C3Cc4c(OC(C)=O)c(C)c5c(c4[C@H](COC(=O)/C=C/c4ccccc4)N3[C@@H](C#N)[C@H](C2)N1C)OCO5` (stereo partly drawn): the IC50 in assay [1] amounted to 0.01 µM.
On to `COc1c(C)cc2c(c1O)[C@@H]1C3Cc4c(OC(C)=O)c(C)c5c(c4[C@H](CNC(=O)[C@H](Cc4ccccc4)NC(=O)OC(C)(C)C)N3[C@@H](C#N)[C@H](C2)N1C)OCO5` (stereo partly drawn), for which the IC50 in assay [2] and in assay [3] was 0.0013 µM in each case.
As for `COc1c(C)cc2c(c1O)[C@@H]1C3Cc4c(OC(C)=O)c(C)c5c(c4[C@H](CNC(=O)[C@@H](NC(=O)OC(C)(C)C)C(C)C)N3[C@@H](C#N)[C@H](C2)N1C)OCO5` (stereo partly drawn), the IC50 in assay [2] and in assay [3] was 0.007 µM throughout.
Regarding `COc1c(C)cc2c(c1O)[C@@H]1C3Cc4c(OC(C)=O)c(C)c5c(c4[C@H](CNC(=O)[C@@H]4CCCN4C(=O)OC(C)(C)C)N3[C@@H](C#N)[C@H](C2)N1C)OCO5` (stereo partly drawn), the IC50 in assay [2] and in assay [3] was 0.014 µM each time.
For `COc1c(C)cc2c(c1O)[C@@H]1C3Cc4c(OC(C)=O)c(C)c5c(c4[C@H](CNC(=O)[C@H](Cc4c[nH]c6ccccc46)NC(=O)OC(C)(C)C)N3[C@@H](C#N)[C@H](C2)N1C)OCO5` (stereo partly drawn), the IC50 in assay [2] and in assay [3] was 0.00012 µM each time.
As for `COc1c(C)cc2c(c1O)[C@@H]1C3Cc4c(OC(C)=O)c(C)c5c(c4[C@H](CNC(=O)[C@H](Cc4c[nH]c6ccccc46)NC(=O)OC(C)(C)C)N3[C@@H](O)[C@H](C2)N1C)OCO5` (stereo partly drawn), in assay [2], the IC50 turned out to be 0.012 µM.
On to `COc1c(C)cc2c(c1O)[C@@H]1C3Cc4c(OC(C)=O)c(C)c5c(c4[C@H](CNC(=O)c4cccnc4Cl)N3[C@@H](C#N)[C@H](C2)N1C)OCO5` (stereo partly drawn), for which the IC50 in assay [2] turned out to be 0.00015 µM.
Consider `COc1c(C)cc2c(c1O)[C@@H]1C3Cc4c(OC(C)=O)c(C)c5c(c4[C@H](CNC(=O)c4cccnc4Cl)N3[C@@H](O)[C@H](C2)N1C)OCO5` (stereo partly drawn), for which the IC50 in assay [2] came out at 0.00015 µM.
With `COc1c(C)cc2c(c1O)[C@@H]1C3Cc4c(OC(C)=O)c(C)c5c(c4[C@H](CNC(=O)CC4CCCCC4)N3[C@@H](C#N)[C@H](C2)N1C)OCO5` (stereo partly drawn), the IC50 in assay [2] stood at 0.0015 µM.
In the case of `COc1c(C)cc2c(c1OC(=O)CC1CCCCC1)[C@@H]1C3Cc4c(OC(C)=O)c(C)c5c(c4[C@H](CNC(=O)CC4CCCCC4)N3[C@@H](C#N)[C@H](C2)N1C)OCO5` (stereo partly drawn), the IC50 in assay [2] is 0.013 µM.
Take `COc1c(C)cc2c(c1O)[C@@H]1C3Cc4c(OC(C)=O)c(C)c5c(c4[C@H](CNC(=O)CCC4CCCCC4)N3[C@@H](C#N)[C@H](C2)N1C)OCO5` (stereo partly drawn): the IC50 in assay [2] was 0.0015 µM.
Turning to `COc1c(C)cc2c(c1OC(=O)CCC1CCCCC1)[C@@H]1C3Cc4c(OC(C)=O)c(C)c5c(c4[C@H](CNC(=O)CCC4CCCCC4)N3[C@@H](C#N)[C@H](C2)N1C)OCO5` (stereo partly drawn), the IC50 in assay [2] stood at 0.12 µM.
As for `CCCC(=O)Oc1c(OC)c(C)cc2c1[C@@H]1C3Cc4c(OC(C)=O)c(C)c5c(c4[C@H](CNC(=O)CCc4ccccc4)N3[C@@H](C#N)[C@H](C2)N1C)OCO5` (stereo partly drawn), the IC50 in assay [2] and in assay [3] was 0.0014 µM throughout.
`CCCCCC(=O)Oc1c(OC)c(C)cc2c1[C@@H]1C3Cc4c(OC(C)=O)c(C)c5c(c4[C@H](CNC(=O)CCc4ccccc4)N3[C@@H](C#N)[C@H](C2)N1C)OCO5` (stereo partly drawn): the IC50 in assay [2] and in assay [3] was 0.013 µM in each case.
Consider `CCCC(=O)Oc1c(OC)c(C)cc2c1[C@@H]1C3Cc4c(OC(C)=O)c(C)c5c(c4[C@H](CNC(=O)C(C)NC(=O)CCc4ccccc4)N3[C@@H](C#N)[C@H](C2)N1C)OCO5` (stereo partly drawn), for which the IC50 in assay [2] and in assay [3] was 0.012 µM each time.
For `CCCCCC(=O)Oc1c(OC)c(C)cc2c1[C@@H]1C3Cc4c(OC(C)=O)c(C)c5c(c4[C@H](CNC(=O)C(C)NC(=O)CCc4ccccc4)N3[C@@H](C#N)[C@H](C2)N1C)OCO5` (stereo partly drawn), the IC50 in assay [2] and in assay [3] was 0.06 µM throughout.
As for `COc1c(C)cc2c(c1OC(C)=O)[C@@H]1C3Cc4c(OC(C)=O)c(C)c5c(c4[C@H](CNC(=O)[C@@H](C)NC(=O)C(F)(F)F)N3[C@@H](C#N)[C@H](C2)N1C)OCO5` (stereo partly drawn), the IC50 in assay [2] and in assay [3] was 0.013 µM each time.
Turning to `CCCC(=O)Oc1c(OC)c(C)cc2c1[C@@H]1C3Cc4c(OC(C)=O)c(C)c5c(c4[C@H](CNC(=O)[C@H](C)NC(=O)C(F)(F)F)N3[C@@H](C#N)[C@H](C2)N1C)OCO5` (stereo partly drawn), the IC50 in assay [2] and in assay [3] was 0.13 µM in each case.
Consider `COc1c(C)cc2c(c1OC(C)=O)[C@@H]1C3Cc4c(OC(C)=O)c(C)c5c(c4[C@H](CNC(=O)[C@@H](C)N(C(C)=O)C(=O)C(F)(F)F)N3[C@@H](C#N)[C@H](C2)N1C)OCO5` (stereo partly drawn), for which the IC50 in assay [2] and in assay [3] was 0.12 µM each time.
For the molecule `CCCC(=O)Oc1c(OC)c(C)cc2c1[C@@H]1C3Cc4c(OC(C)=O)c(C)c5c(c4[C@H](CN(C(=O)CCC)C(=O)[C@H](C)N(C(=O)CCC)C(=O)C(F)(F)F)N3[C@@H](C#N)[C@H](C2)N1C)OCO5` (stereo partly drawn), the IC50 in assay [2] and in assay [3] was 0.11 µM each time.
For the molecule `CCCCCC(=O)Oc1c(OC)c(C)cc2c1[C@@H]1C3Cc4c(OC(C)=O)c(C)c5c(c4[C@H](CNC(=O)[C@H](C)NC(=O)C(F)(F)F)N3[C@@H](C#N)[C@H](C2)N1C)OCO5` (stereo partly drawn), the IC50 in assay [2] and in assay [3] was 0.012 µM throughout.
`C=CCNC[C@H]1c2c(c(OC(C)=O)c(C)c3c2OCO3)CC2[C@H]3c4c(cc(C)c(OC)c4O)C[C@@H]([C@H](C#N)N21)N3C` (stereo partly drawn): the IC50 in assay [2] and in assay [3] was 0.0018 µM in each case.
In the case of `C=CCOc1c(C)c2c(c3c1CC1[C@H]4c5c(cc(C)c(OC)c5O)C[C@@H]([C@H](C#N)N1[C@H]3COC(=O)/C=C/c1ccccc1)N4C)OCO2` (stereo partly drawn), the IC50 in assay [2] and in assay [3] was 0.0015 µM each time.
For `COCOc1c(OC)c(C)cc2c1[C@@H]1C3CC4C(=O)C(C)=C5OCOC5=C4[C@H](COC(=O)/C(CSCC4c5ccccc5-c5ccccc54)=N/OC)N3[C@@H](C#N)[C@H](C2)N1C` (stereo partly drawn), the IC50 in assay [2] and in assay [3] was more than 1 µM each time.
Consider `C=CCOC1C(C)=C2OCOC2=C2C1CC1[C@H]3c4c(cc(C)c(OC)c4OCOC)C[C@@H]([C@H](C#N)N1[C@H]2COC(=O)/C(=C/SCC1c2ccccc2-c2ccccc21)OCOC)N3C` (stereo partly drawn), for which the IC50 in assay [2] and in assay [3] was 0.056 µM in each case.
